Test results: patent US12435108B2, “Teixobactin analogue and use thereof” (SUNSHINE LAKE PHARMA CO., LTD., priority 2019, dated 2025)

Legend:
MRSA (SA86) = settings: agar plate two-fold dilution, CLSI, 35 °C, 18 h
Experimental: (§1) For the determination of the minimum inhibitory concentration (MIC), according to the CLSI standard, a two-fold dilution method with a plate and a Denlay multi-point inoculator were used to conduct the drug sensitivity test. The test bacteria were enriched with MH broth or brain heart infusion. The drug solution was diluted two-fold with MH broth to prepare various required concentrations, and appropriate amounts were added to the plates respectively. After the MH agar medium was melted, it was quantitatively poured into the plates containing the drug solution and mixed uniformly. The final concentrations of the samples were: 128, 64, 32, 16, 8, 4, 2, 1, 0.5, 0.25, 0.125, 0.063, 0.031, 0.016, 0.008, 0.004 μg/mL, respectively. The test bacteria were inoculated (inoculation amount was 10^4 cfu/point) and then incubated at constant temperature of 35 □. The results were observed after 18 h. The minimum concentration of the drug contained in the sterile growth plate was the minimum inhibitory concentration (MIC). Selection of strain types: MRSA (SA86 and SA88), MSSA (ATCC29213), Enterococcus (ET6) and Streptococcus faecalis (SF).

MRSA (SA88) = settings: agar plate two-fold dilution, CLSI, 35 °C, 18 h
Experimental: as §1

MSSA (ATCC29213) = settings: Test Method 1: agar plate two-fold dilution, CLSI, 35 °C, 18 h
Experimental: as §1

Enterococcus (ET6) = settings: agar plate two-fold dilution, CLSI, 35 °C, 18 h
Experimental: as §1

[1] = tested on: Streptococcus faecalis (SF); settings: agar plate two-fold dilution, CLSI, 35 °C, 18 h
Experimental: as §1

[2] = tested on: Mycobacterium smegmatis mc2155; test: MIC, 96-well dilution in 7H9 medium (Test Method 3); type: cell-based; settings: 96-well plate, 35±2 °C, 48 hours, highest concentration 64 μg/mL

Row | SMILES | In vitro antibacterial activity MIC, MRSA SA86 (MRSA (SA86)) | In vitro antibacterial activity MIC, MRSA SA88 (MRSA (SA88)) | In vitro antibacterial activity MIC, MSSA(ATCC29213) (MSSA (ATCC29213)) | In vitro antibacterial activity MIC, Enterococcus (ET6) (Enterococcus (ET6)) | In vitro antibacterial activity MIC, Streptococcus faecalis(SF) [1] | In vitro antibacterial activity MIC, Mycobacterium smegmatis mc2155 [2]
1 | C=C[C@@H]1C[C@@]12NC(=O)[C@H](C)NC(=O)[C@H](NC(=O)[C@H](CO)NC(=O)[C@@H](NC(=O)[C@H](NC(=O)[C@@H](CCC(N)=O)NC(=O)[C@H](CO)NC(=O)[C@@H](NC(=O)[C@@H](Cc1ccccc1)NC)[C@@H](C)CC)[C@@H](C)CC)[C@@H](C)CC)[C@H](C)NC(=O)[C@H]([C@@H](C)CC)NC2=O.O=C(O)C(F)(F)F [Example 4] | 8 µg/mL | 4 µg/mL | 4 µg/mL | 8 µg/mL | 8 µg/mL | –
2 | CC[C@H](C)[C@H](NC(=O)[C@@H](Cc1ccccc1)NC)C(=O)N[C@@H](CO)C(=O)N[C@H](CCC(N)=O)C(=O)N[C@@H](C(=O)N[C@H](C(=O)N[C@@H](CO)C(=O)N[C@H]1C(=O)N[C@@H](C)C(=O)N[C@@]2(C[C@H]2CCN)C(=O)N[C@@H]([C@@H](C)CC)C(=O)O[C@H]1C)[C@@H](C)CC)[C@@H](C)CC.O=C(O)C(F)(F)F [Example 10] | 4 µg/mL | 4 µg/mL | 2 µg/mL | 2 µg/mL | 2 µg/mL | –
3 | CC[C@H](C)[C@H](NC(=O)[C@@H](Cc1ccccc1)NC)C(=O)N[C@@H](CO)C(=O)N[C@H](CCC(N)=O)C(=O)N[C@@H](C(=O)N[C@H](C(=O)N[C@@H](CO)C(=O)N[C@H]1C(=O)N[C@@H](C)C(=O)NC2(CCCCC2)C(=O)N[C@@H]([C@@H](C)CC)C(=O)O[C@H]1C)[C@@H](C)CC)[C@@H](C)CC.O=C(O)C(F)(F)F [Example 8] | 8 µg/mL | 4 µg/mL | 8 µg/mL | – | – | –
4 | CC[C@H](C)[C@H](NC(=O)[C@@H](Cc1ccccc1)NC)C(=O)N[C@@H](CO)C(=O)N[C@H](CCC(N)=O)C(=O)N[C@@H](C(=O)N[C@H](C(=O)N[C@@H](CO)C(=O)N[C@H]1C(=O)N[C@@H](C)C(=O)N[C@]2(C[C@@H]2CC(F)F)C(=O)N[C@@H]([C@@H](C)CC)C(=O)N[C@H]1C)[C@@H](C)CC)[C@@H](C)CC.O=C(O)C(F)(F)F [Example 2] | 4 µg/mL | 2 µg/mL | 4 µg/mL | 4 µg/mL | 8 µg/mL | –
5 | CC[C@H](C)[C@H](NC(=O)[C@@H](Cc1ccccc1)NC)C(=O)N[C@@H](CO)C(=O)N[C@H](CCC(N)=O)C(=O)N[C@@H](C(=O)N[C@H](C(=O)N[C@@H](CO)C(=O)N[C@H]1C(=O)N[C@@H](C)C(=O)N[C@@]2(C[C@H]2CC(F)F)C(=O)N[C@@H]([C@@H](C)CC)C(=O)O[C@H]1C)[C@@H](C)CC)[C@@H](C)CC.O=C(O)C(F)(F)F [Example 1] | 4 µg/mL | – | 2 µg/mL | 4 µg/mL | – | 8 µg/mL
6 | CC[C@H](C)[C@H](NC(=O)[C@H](N)Cc1ccc(-c2ccccc2)cc1)C(=O)N[C@@H](CO)C(=O)N[C@H](CCC(N)=O)C(=O)N[C@@H](C(=O)N[C@H](C(=O)N[C@@H](CO)C(=O)N[C@H]1C(=O)N[C@@H](C)C(=O)N[C@@]2(C[C@H]2CC(F)F)C(=O)N[C@@H]([C@@H](C)CC)C(=O)O[C@H]1C)[C@@H](C)CC)[C@@H](C)CC [Example 13] | 8 µg/mL | 8 µg/mL | 8 µg/mL | 8 µg/mL | 8 µg/mL | –
